Here are results for five compounds from patent US20160250253A1, “STRONTIUM-CONTAINING COMPLEXES FOR TREATING GASTROESOPHAGEAL REFLUX AND BARRETT'S ESOPHAGUS” (priority 2013, published 2016).

In one series the test system is ulcer. The settings on record: cited from earlier work.
Another series concerns Helicobacter pylori. Conditions: cited from earlier work.
The test system of another series is cancer cell lines. The settings on record: series of cancer cell lines; cited from earlier work.
The next series concerns the target KCa 3.1 (Homo sapiens, UniProt O15554). The settings on record: cited from earlier work.
Series [1] has as its system esophageal cancer cells (TE-2). The settings on record: cited from earlier work.
The subject of another series is acid-induced pain. Put plainly: Double blind study of glycolic acid induced pain on the forearm. The format is in vivo, human. The settings on record: 25% glycolic acid with or without 250 millimolar gallic acid, topical on forearm, pain rated 0-4 every minute for 10 minutes. As to the method: Briefly, in a double blind study, 25% glycolic acid solutions with or without 250 millimolar of gallic acid were applied to an 2×8 inch area of the forearm of the study participants. The pain level was assessed at time of application and every minute thereafter for 10 minutes. Study participants rated the pain levels on a 0-4 scale where 0 was no pain; 1 was slight pain; 2 was mild pain; 3 was moderate pain; and 4 was unbearable pain.

For a further series, the system named is pain of sore throat. Put plainly: Sore throat pain after gargling. Type of series: in vivo. The settings on record: within several minutes after gargling, clinical observations. From the text:
Since acidic material from the stomach is what causes the burning pain and inflammation in GER, it is hypothesized that strontium would be effective in treating GER.

Series [2] relates to TCN activation by highly acidic chemical peels. The settings on record: topically applied, 70% glycolic acid, pH 0.6 on the skin, previous studies; cited from earlier work.
The conditions of series [3]: oral, 680 mg of elemental strontium per day; cited from earlier work.
Series [4] concerns TCN activation by highly acidic chemical peels. Nature of the series: Burning pain from 70% glycolic acid, pH 0.6, applied to the skin. Type of series: in vivo, human. Conditions: strontium mixed with 70% glycolic acid. As to the method:
Nociceptors also have a CaSR that inhibits nociceptor activation when the extracellular concentration of calcium is raised above normal, or if a similar concentration of strontium is administered. […] When strontium is mixed with the acid, burning pain and stinging is suppressed by 80% or more so that any remaining sensory irritation is not bothersome.

Series [5] concerns histamine-induced itching. The settings on record: topical; cited from earlier work.
In the next series the test system is synaptotagmin-1. Conditions: strontium substitutes for calcium; cited from earlier work.
For another series, the system named is Type C nociceptors. Put plainly: Substance P release by Type C nociceptors, unpublished animal studies. Type of series: in vivo. From the text: As mentioned above, acid from the stomach activates many pathways that trigger pain and inflammation such as the release of substance P, neurokinin A, and CGRP. […] While the precise molecular mechanism by which strontium inhibits substance P release is unknown, it is believed that the release of substance P, neurokinin A and CGRP occur together and by the same or similar trigger mechanism.

Series [6] has as its system burning pain due to 1% lactic acid. Nature of the series: Burning pain from 1% lactic acid instilled on the conjunctiva of the eye. The settings on record: 1% lactic acid on the conjunctiva, pilot studies in humans. The format is in vivo.
Another series has as its system CICR pathway. Conditions: cited from earlier work.

Regarding `O=C(O)c1cc(O)c(O)c(O)c1` [gallic acid, 3,4,5-trihydroxybenzoic acid], in the series on ulcer, the ulcer-preventing properties result is “ulcer-preventing properties”. Also, in the series with Helicobacter pylori, the H. pylori growth result is reported as “inhibition of H. pylori growth”. The cell proliferation entry in the series on cancer cell lines is “significant inhibition of cell proliferation”. In addition, the “block of KCa 3.1” value on KCa 3.1 was “does not block”. Further, the apoptosis entry in series [1] is given as “induced apoptosis”. In addition, in the series with acid-induced pain, the acid induced pain entry was “effective in reducing or preventing the acid induced pain”.

As for `O=C(O)C=Cc1ccccc1` [cinnamic acid], the ulcer-preventing properties entry in the series on ulcer is reported as “ulcer-preventing properties”. Moreover, in the series with Helicobacter pylori, the H. pylori growth result is “inhibition of H. pylori growth”.

Take `[Cl-].[Cl-].[Sr+2]` [strontium chloride solution, strontium chloride]: the “pain of sore throat” value in the series on pain of sore throat was “greatly relieved, if not eliminated”.

Take `[Sr+2]` [strontium]: the intense burning pain entry in series [2] is recorded as “virtually abolish”. In [3], the “fraction absorbed by the GI tract into the blood” value is “approximately 25%”. Also, the “suppression of burning pain and stinging” value in [4] is listed as at least 80%. In series [5], the injected histamine-induced itching result is reported as “significantly inhibited”. Further, in the series on synaptotagmin-1, the “reduction of amplitude of synchronous neurotransmitter release” value is above 90%. In addition, in the series with Type C nociceptors, the “substance P release” value was “inhibit substance P release”. Further, in [6], the burning pain result is listed as “inhibit burning pain”. The “ability to induce CICR relative to calcium” value in the series on CICR pathway is “over a hundred-fold less active than calcium”. Besides, in the series with CICR pathway (greater than calcium), the “concentration in the ER relative to calcium” value is “more than 150%”.

As to `N#Cc1c(N(CC(=O)[O-])CC(=O)[O-])sc(C(=O)[O-])c1CC(=O)[O-].[Sr+2].[Sr+2]` [strontium ranelate], the “fraction absorbed by the GI tract into the blood” value in series [3] is listed as “approximately 25%”.
